Results reported in patent US10899738B2 (THE REGENTS OF THE UNIVERSITY OF MICHIGAN, priority 2016, dated 2021).

Molecular target: menin protein (Homo sapiens (Human), UniProt O00255)
Experiment: biochemical
Format: binding
Conditions: FP competitive binding, menin protein 4 nM, FAM-MM2 probe 2 nM; for IC50: read-out: Menin Binding Affinity IC50
How it was run: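 Test compounds displaced FAM-MM2 (2 nM) from 4 nM menin after 30 min equilibration at room temperature in PBS buffer containing bovine γ-globulin, 4% DMSO and Triton X-100. Binding was followed by fluorescence polarization. Competition curves were fitted by nonlinear regression to give IC50 and Ki.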

menin protein, sequence (O00255 whole entry): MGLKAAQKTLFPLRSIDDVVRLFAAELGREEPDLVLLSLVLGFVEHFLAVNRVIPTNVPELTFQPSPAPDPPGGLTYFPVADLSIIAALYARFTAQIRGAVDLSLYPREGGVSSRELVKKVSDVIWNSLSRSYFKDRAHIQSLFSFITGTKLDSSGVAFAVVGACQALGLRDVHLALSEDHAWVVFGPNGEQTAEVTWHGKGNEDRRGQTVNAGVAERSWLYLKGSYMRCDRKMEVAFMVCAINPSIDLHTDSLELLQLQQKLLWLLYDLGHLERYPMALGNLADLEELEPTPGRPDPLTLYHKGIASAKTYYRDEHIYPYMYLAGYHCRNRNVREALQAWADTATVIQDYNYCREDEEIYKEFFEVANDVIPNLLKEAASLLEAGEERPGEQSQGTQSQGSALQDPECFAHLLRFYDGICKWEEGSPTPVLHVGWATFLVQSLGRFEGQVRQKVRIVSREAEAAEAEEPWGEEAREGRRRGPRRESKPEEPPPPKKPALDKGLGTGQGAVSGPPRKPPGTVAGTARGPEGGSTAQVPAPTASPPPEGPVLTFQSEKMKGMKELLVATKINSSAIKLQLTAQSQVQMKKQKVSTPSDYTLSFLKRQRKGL

Menin Binding Affinity IC50 (μM) | IC50 | SMILES
– | 89 nM | COC(=O)N[C@H]1CCC[C@@H]1C(C#N)(c1ccccc1)C1CCN(CC2CN(c3ccc(C(F)(F)F)cc3)C2)CC1 (mixture of isomers) [compound 401, methyl rac-((1S,2R)-2-(cyano(phenyl)(1-((1-(4-(trifluoromethyl)phenyl)azetidin-3-yl)methyl)piperidin-4-yl)methyl)cyclopentyl) carbamate]
– | 2400 nM | COC(=O)N[C@H]1CCC[C@@H]1C(C#N)(c1ccccc1)C1CCN(CC2CN(c3ccccc3)C2)CC1 (mixture of isomers) [compound 402, methyl rac-((1S,2R)-2-(cyano(phenyl)(1-((1-phenylazetidin-3-yl)methyl)piperidin-4-yl)methyl)cyclopentyl) carbamate]
– | 174 nM | COC(=O)N[C@H]1CCC[C@@H]1C(C#N)(c1ccccc1)C1CCN(CCC#Cc2ccc(S(=O)(=O)C(F)(F)F)cc2)CC1 (mixture of isomers) [compound 405, methyl rac-((1S,2R)-2-(cyano(phenyl)(1-(4-(4-((trifluoromethyl)sulfonyl)phenyl)but-3-yn-1-yl)piperidin-4-yl)methyl)cyclopentyl)carbamate]
– | 4 nM | CNC(=O)O[C@H]1CCC[C@@H]1C(Cn1ccnc1)(c1ccccc1)C1CCN(CC2CN(c3ccc(S(=O)(=O)C4COC4)cc3)C2)CC1 (mixture of isomers) [compound 412, rac-(1S,2R)-2-(2-(1H-imidazol-1-yl)-1-(1-((1-(4-(oxetan-3-ylsulfonyl)phenyl)azetidin-3-yl)methyl)piperidin-4-yl)-1-phenylethyl)cyclopentyl methylcarbamate]
– | 6 nM | CNC(=O)O[C@H]1CCC[C@@H]1C(Cn1ccnc1C)(c1cccc(F)c1)C1CCN(CC2CN(c3ccc(Cl)cc3)C2)CC1 (mixture of isomers) [compound 413, rac-(1S,2R)-2-(1-(1-((1-(4-chlorophenyl)azetidin-3-yl)methyl)piperidin-4-yl)-1-(3-fluorophenyl)-2-(2-methyl-1H-imidazol-1-yl)ethyl)cyclopentyl methylcarbamate]
– | 539 nM | CNC(=O)O[C@@H]1CCC[C@H]1C(Cn1ccnc1C)(c1cccc(F)c1)C1CCN(CC2CN(c3ccc(Cl)cc3)C2)CC1 (mixture of isomers) [compound 414, rac-(1R,2S)-2-(1-(1-((1-(4-chlorophenyl)azetidin-3-yl)methyl)piperidin-4-yl)-1-(3-fluorophenyl)-2-(2-methyl-1H-imidazol-1-yl)ethyl)cyclopentyl methylcarbamate]
– | 16 nM | CC(=O)O[C@H]1CCC[C@@H]1C(C#N)(c1cccc(F)c1)C1CCN(CC2CN(c3ccc(C#N)cc3)C2)CC1 (mixture of isomers) [compound 415, rac-(1S,2R)-2-(cyano(1-((1-(4-cyanophenyl)azetidin-3-yl)methyl)piperidin-4-yl)(3-fluorophenyl)methyl) cyclopentyl acetate]
– | 3280 nM | CC(=O)O[C@@H]1CCC[C@H]1C(C#N)(c1cccc(F)c1)C1CCN(CC2CN(c3ccc(C#N)cc3)C2)CC1 (mixture of isomers) [compound 416, rac-(1R,2S)-2-(cyano(1-((1-(4-cyanophenyl)azetidin-3-yl)methyl)piperidin-4-yl)(3-fluorophenyl)methyl) cyclopentyl acetate]
– | 1610 nM | CC(=O)O[C@H]1CCC[C@@H]1C(C#N)(c1cccc(C(F)(F)F)c1)C1CCN(CC2CN(c3ccc(C#N)cc3)C2)CC1 (mixture of isomers) [compound 417, rac-(1S,2R)-2-(cyano(1-((1-(4-cyanophenyl)azetidin-3-yl)methyl)piperidin-4-yl)(3-(trifluoromethyl)phenyl)methyl)cyclopentyl acetate]
– | 923000 nM | CC(=O)O[C@@H]1CCC[C@H]1C(C#N)(c1cccc(C(F)(F)F)c1)C1CCN(CC2CN(c3ccc(C#N)cc3)C2)CC1 (mixture of isomers) [compound 418, rac-(1R,2S)-2-(cyano(1-((1-(4-cyanophenyl)azetidin-3-yl)methyl)piperidin-4-yl)(3-(trifluoromethyl)phenyl)methyl)cyclopentyl acetate]
– | 293 nM | CC(=O)O[C@H]1CCC[C@@H]1C(C#N)(c1cccc(F)c1)C1CCN(CC2CN(c3ccc(CC(F)(F)F)cc3)C2)CC1 (mixture of isomers) [compound 419, rac-(1S,2R)-2-(cyano(3-fluorophenyl)(1-((1-(4-(2,2,2-trifluoroethyl)phenyl)azetidin-3-yl)methyl)piperidin-4-yl)methyl)cyclopentyl acetate]
– | 11600 nM | CC(=O)O[C@@H]1CCC[C@H]1C(C#N)(c1cccc(F)c1)C1CCN(CC2CN(c3ccc(CC(F)(F)F)cc3)C2)CC1 (mixture of isomers) [compound 420, rac-(1R,2S)-2-(cyano(3-fluorophenyl)(1-((1-(4-(2,2,2-trifluoroethyl)phenyl)azetidin-3-yl)methyl)piperidin-4-yl)methyl)cyclopentyl acetate]
– | 4 nM | CNC(=O)O[C@H]1CCC[C@@H]1C(Cn1ccnc1)(c1ccccc1)C1CCN(CC2CN(c3ccc(C(F)(F)F)cc3)C2)CC1 (mixture of isomers) [compound 421, rac-(1S,2R)-2-(2-(1H-imidazol-1-yl)-1-phenyl-1-(1-((1-(4-(trifluoromethyl)phenyl)azetidin-3-yl)methyl)piperidin-4-yl)ethyl)cyclopentyl methylcarbamate]
– | 28 nM | CNC(=O)O[C@H]1CCC[C@@H]1C(C#N)(c1ccccc1)C1CCN(CC2CN(c3ccc(C(C)(C)C)cc3)C2)CC1 (mixture of isomers) [compound 422, rac-(1S,2R)-2-((1-((1-(4-(tert-butyl)phenyl)azetidin-3-yl)methyl)piperidin-4-yl)(cyano)(phenyl)methyl) cyclopentyl methylcarbamate]
– | 776 nM | CNC(=O)O[C@@H]1CCC[C@H]1C(C#N)(c1ccccc1)C1CCN(CC2CN(c3ccc(C(C)(C)C)cc3)C2)CC1 (mixture of isomers) [compound 423, rac-(1R,2S)-2-((1-((1-(4-(tert-butyl)phenyl)azetidin-3-yl)methyl)piperidin-4-yl)(cyano)(phenyl)methyl) cyclopentyl methylcarbamate]

More lines, now with the values behind:

SMILES | Menin Binding Affinity IC50 (μM) | IC50
CC(=O)O[C@@H]1CCC[C@H]1C(C#N)(c1ccccc1)C1CCN(CC#Cc2ccc(C#N)cc2)CC1 (mixture of isomers) [compound 387, rac-(1R,2S)-2-(cyano(1-(3-(4-cyanophenyl)prop-2-yn-1-yl)piperidin-4-yl)(phenyl)methyl)cyclopentyl acetate] | No inhibition | –
CC(=O)O[C@H]1CCC[C@@H]1C(C#N)(c1ccccc1)C1CCN(CC2CN(c3ccc(C(=O)O)cc3)C2)CC1 (mixture of isomers) [compound 388, rac-4-(3-((4-(((1R,2S)-2-acetoxycyclopentyl)(cyano) (phenyl)methyl)piperidin-1-yl)methyl)azetidin-1-yl)benzoic acid] | – | 15100 nM
CC(=O)O[C@@H]1CCC[C@H]1C(C#N)(c1ccccc1)C1CCN(CC2CN(c3ccc(C(=O)O)cc3)C2)CC1 (mixture of isomers) [compound 389, rac-4-(3-((4-(((1S,2R)-2-acetoxycyclopentyl)(cyano) (phenyl)methyl)piperidin-1-yl)methyl)azetidin-1-yl)benzoic acid] | – | 6500 nM
N#Cc1ccc(OC2CC(N3CCC(C4(C5CCCC5)NCCc5ccccc54)CC3)C2)cc1 (single isomer, unassigned) [compound 130, 4-((1s,3s)-3-(4-(1-cyclopentyl-1,2,3,4-tetrahydroisoquinolin-1-yl)piperidin-1-yl)cyclobutoxy)benzonitrile] | – | 10600 nM
N#Cc1ccc(OC2CC(N3CCC(C4(C5CCCC5)NCCc5ccccc54)CC3)C2)cc1 (single isomer, unassigned) [compound 131, 4-((1r,3r)-3-(4-(1-cyclopentyl-1,2,3,4-tetrahydroisoquinolin-1-yl)piperidin-1-yl)cyclobutoxy)benzonitrile] | – | 1100 nM
c1ccc(CN2CCC(C3(C4CCCC4)NCCc4ccccc43)CC2)cc1 (stereo not shown) [Cpd. No. 71, 1-(1-benzylpiperidin-4-yl)-1-cyclopentyl-1,2,3,4-tetrahydroisoquinoline] | – | 190000 nM
N#Cc1ccc(N2CC(CN3CCC(C4(C5CCCC5)NCCc5ccccc54)CC3)C2)cc1 (stereo not shown) [Cpd. No. 129, 4-(3-((4-(1-cyclopentyl-1,2,3,4-tetrahydroisoquinolin-1-yl)piperidin-1-yl)methyl)azetidin-1-yl)benzonitrile] | – | 36 nM
N#Cc1ccc(OCCCN2CCC(C(C#N)(c3ccccc3)C3CCCC3)CC2)cc1 (stereo not shown) [compound 20, 4-(3-(4-(cyano(cyclopentyl)(phenyl)methyl)piperidin-1-yl)propoxy)benzonitrile] | – | 1300 nM
N#Cc1ccc(OCCCN2CCC(C3(C4CCCC4)CNC(=O)c4ccccc43)CC2)cc1 (stereo not shown) [compound 21, 4-(3-(4-(4-cyclopentyl-1-oxo-1,2,3,4-tetrahydroisoquinolin-4-yl)piperidin-1-yl)propoxy)benzonitrile] | – | 1100 nM
N#Cc1ccc(OCCCN2CCC(C3(C4CCCC4)NCCc4ccc(F)cc43)CC2)cc1 (stereo not shown) [compound 22, 4-(3-(4-(1-cyclopentyl-7-fluoro-1,2,3,4-tetrahydroisoquinolin-1-yl)piperidin-1-yl)propoxy)benzonitrile] | – | 473 nM
N#Cc1ccc(OCCCN2CCC(C3(C4CCCC4)C(=O)NCc4ccccc43)CC2)cc1 (stereo not shown) [compound 24, 4-(3-(4-(4-cyclopentyl-3-oxo-1,2,3,4-tetrahydroisoquinolin-4-yl)piperidin-1-yl)propoxy)benzonitrile] | – | 416 nM
CS(=O)(=O)c1ccc(N2CC(CN3CCC(C4(C5CCCC5)C(=O)N(Cc5ccccc5)Cc5ccccc54)CC3)C2)cc1 (stereo not shown) [compound 25, 2-benzyl-4-cyclopentyl-4-(1-((1-(4-(methylsulfonyl)phenyl)azetidin-3-yl)methyl)piperidin-4-yl)-1,4-dihydroisoquinolin-3(2H)-one] | – | 2700 nM
COC1CCC(C2(C3CCN(CCCOc4ccc(C#N)cc4)CC3)C(=O)NCc3ccccc32)C1 (stereo not shown) [compound 26, 4-(3-(4-(4-(3-methoxycyclopentyl)-3-oxo-1,2,3,4-tetrahydroisoquinolin-4-yl)piperidin-1-yl)propoxy)benzonitrile] | No inhibition | –
